Reference: paper PMC6143625, “A high throughput screen for next-generation leads targeting malaria parasite transmission” (Nature Communications, 2018)
Read-outs that look alike come from different tables or passages of the source.

Columns and labels:
[1] = test system: P. falciparum 3D7 asexual blood stages; experiment: Whole-cell time extended asexual growth assay (pLDH); format: cell-based; settings: Plasmodium falciparum; for inhibition at 2 µM: primary screen, read-out: %Inh Asex stages @2uM
Method: Asexual activity was assayed via Plasmodium lactate dehydrogenase activity (pLDH), a surrogate of asexual parasite growth. […] 2 µM artesunate and DMSO were used as the positive and negative controls, respectively. […] After plate mixing, NBT reduction was measured by absorbance at 650 nm using Envision (Perkin Elmer).

[2] = test system: P. falciparum stage V female gametocytes (female gamete formation); experiment: P. falciparum dual gamete formation assay (Pf DGFA), female readout (Pfs25 expression), 48 h carry-over format; format: cell-based, Plasmodium falciparum NF54; settings: Plasmodium falciparum; for inhibition at 2 µM: primary screen, single replicate
HepG2 cells = experiment: HepG2 toxicity (CellTiter-Glo, parallel to liver stage assay); format: cell-based, human
Method: Compound inhibition of P. berghei sporozoite liver infection was assessed in a high-throughput luciferase assay. 1536-well plates (789173-F, Greiner Bio-One) were pre-seeded with 5 µl HepG2-A16-CD81^EGFP cells grown in DMEM (11965–092, Invitrogen) containing 10% FBS (35–011-CV, Corning) and 1× Pen Strep Glutamine (10378–016, Invitrogen). Then, 50 nl of compound in DMSO was dispensed in 12-point serial dilution dose-response format (50 µM to 2.82 × 10^−4 µM), and incubated overnight.A. stephensi mosquitoes infected with P. berghei-ANKA-GFP-Luc-SMCON (Pb-Luc)[41] sporozoites bearing the antifolate-resistance-conferring Toxoplasma gondii dihydrofolate reductase-thymidylate synthase selectable marker, pyR2. After dissection, ~1000 sporozoites in 5 µl screening media (DMEM, 11965–092, Invitrogen; 5% FBS, 35–011-CV, Corning; 5x Pen Strep Glutamine, 10378–016, Invitrogen) were added per well and incubated for 48 h (37 °C, 5% CO2). Bioluminescence was measured using an EnVision microplate reader (Perkin Elmer), following the addition of 2 µl per well of Bright-Glo™ (Promega). Compound toxicity against HepG2 cells was determined in parallel by measuring cellular ATP levels reported by luciferase activity. Methods were similar to the P. berghei liver stage assay, except for the addition of CellTiter-Glo® (Promega) as a detection reagent. DMSO (0.5%) was used as a negative control in both assays, with Atovaquone (5 µM) and Puromycin (10 µM) acting as positive controls in the P. berghei and toxicity assays, respectively.

[3] = test system: P. falciparum male gamete formation; experiment: Pf DGFA add-in format, male readout; format: cell-based, Plasmodium falciparum; settings: Plasmodium falciparum; 0h preincubation/add-in
Method: In profiling mode, the Pf DGFA was performed in 96-well plates[23] in wash-out and add-in formats to aid manual manipulation steps. In the wash-out format, gametocytes were incubated for 24 h with test compounds in round-bottomed 96 well plates and then culture medium replaced three times over 6 h, to remove as much of the compound as possible from the well. […] In add-in format, gametocytes were added directly to flat-bottomed 96-well plates containing test compounds, ookinete medium and anti-Pfs25.

[4] = test system: Stage IV–V 3D7 gametocytes; experiment: Gametocytocidal ATP-based bioluminescence assay (GC-ATP); format: cell-based, Plasmodium falciparum 3D7; settings: for IC50: Plasmodium falciparum, 3D7, 48h incubation, read-out: Pf late stage gametocyte (ATP depletion) IC50
Method: The metabolic viability of late stage gametocytes was determined using a gametocyte ATP bioluminescence assay. Stage IV–V 3D7 gametocyte cultures were double-purified by density gradient sedimentation over NycoPrep® followed by magnetic isolation. Then, parasites (50 µl per well containing 12,500 gametocytes) were added to compound pre-dispensed 384-well plates (781091, Greiner) and incubated at 37 °C for 48 h under 5% CO2/3% O2/92% N2. BacTiter-Glo® kit (G8231, Promega) was used to determine the ATP levels of viable parasites according to manufacturer’s instructions. After reagent addition (50 µl per well), luminescence of the plates was measured using a microplate reader (HTS counter Victor, Wallac).

[5] = profiling / reconfirmation, read-out: Pf asexual IC50
[6] = BPCA vs GHCDL stock of DDD599, adjusted for correct molecular weight, read-out: Pf DGFA female IC50
[7] = 72h incubation, read-out: Pf Asexual IC50
[8] = dose response retest, 72 h, read-out: IC50 (µM) Asex stages
[9] = 24h preincubation/carry-over, read-out: Pf DGFA Female IC50
[10] = 48 h, dose response retest of primary hits, 48 h incubation, read-out: Female IC50
[11] = 48h preincubation/carry-over, read-out: Pf DGFA Female IC50
[12] = SAR, Fig. 7, read-out: Female IC50

Compound | IC50 [1, 5] | IC50 [2, 6] | Human HepG2 assay TOX50 (HepG2 cells; human, 48 h) | IC50 [3] | IC50 [1, 7] | IC50 ([1]; compound resynthesised at GSK, read-out: IC50 against asexuals) | IC50 [1, 8] | inhibition at 2 µM ([1]; 72 h) | IC50 [4] | IC50 [2, 9] | IC50 ([2]; compound resynthesised at GSK, read-out: IC50 against female gametocytes) | IC50 [2, 10] | IC50 [2, 11] | IC50 [2, 12] | inhibition at 2 µM ([2]; 48 h incubation) | Human HepG2 assay TOX50 (HepG2 cells; 48h incubation) | HepG2 TOX50 (HepG2 cells; human, 48 h) | activity in the GC-ATP assay ([4]; profiling)
O=C(CCl)Nc1ccc(Br)cc1 [BPCA, N-(4-bromophenyl)-2-chloroacetamide] | 0.8 µM | 11 µM |  |  |  |  |  |  |  |  |  |  |  |  |  |  |  | 
CC(=O)c1c(C)nn(CC(=O)Nc2ccc(Br)cc2)c1C [DDD01027599] | 0.8 µM | 3.43 µM | 25.00 µM | > 10 µM | 0.64 µM | > 50 µM | 1.02 µM | 80.5% | 1.61 µM | > 12.5 µM | > 50 µM |  |  |  |  |  |  | 
O=S(=O)(NCC1(O)CCOc2ccccc21)c1ccccc1F (stereo not drawn) [DDD01028073] |  |  | >50.0 µM | 0.34 µM | > 20 µM |  |  |  | > 10 µM | > 12.5 µM |  | > 10 µM | > 12.5 µM | > 12.5 µM | < 30% |  |  | 
Cc1ccc(S(=O)(=O)NCC2(O)CCOc3ccccc32)s1 (stereo not drawn) [DDD01028074] |  |  | >50.0 µM | 0.61 µM | > 20 µM |  |  |  | > 10 µM | > 12.5 µM |  | > 10 µM | > 12.5 µM | > 12.5 µM | < 30% |  |  | 
O=S(=O)(NCC1(O)CCOc2ccccc21)c1ccc(Cl)s1 (stereo not drawn) [DDD01028075] |  |  | >50.0 µM | 0.24 µM | > 20 µM |  |  |  | > 10 µM | > 12.5 µM |  | > 10 µM | > 12.5 µM | > 12.5 µM | < 30% |  |  | 
O=S(=O)(NCC1(O)CCOc2ccccc21)c1ccccc1Br (stereo not drawn) [DDD01028076] |  |  | >50.0 µM | 0.53 µM | > 20 µM |  |  |  | > 10 µM | > 12.5 µM |  | > 10 µM | > 12.5 µM | > 12.5 µM | < 30% |  |  | 
COc1cccc(-n2ccc3nc(N4CCCC4)ncc3c2=O)c1 [DDD01034957] |  |  | >50.0 µM | > 10 µM | 0.17 µM |  | 0.72 µM | 58.1% | > 10 µM | > 12.5 µM |  |  | > 12.5 µM |  |  |  |  | 
O=S(=O)(NCC1(O)CCOc2ccccc21)c1cccs1 (stereo not drawn) [DDD01035879] |  |  | >50.0 µM | 0.28 µM | > 20 µM |  |  |  | > 10 µM | > 12.5 µM |  | > 10 µM | > 12.5 µM | > 12.5 µM | < 30% |  |  | 
O=S(=O)(NCC1(O)CCOc2ccccc21)c1ccc(Br)s1 (stereo not drawn) [DDD01035881] |  |  | >50.0 µM | 0.19 µM | 17.5 µM |  |  |  | > 10 µM | > 12.5 µM |  | > 10 µM | > 12.5 µM | > 12.5 µM | < 30% |  |  | 
Cc1cccc(NC(=O)c2cccc(OCc3nnnn3C)c2)n1 [DDD01038630] |  |  | >50.0 µM | > 10 µM | 1.13 µM |  | 0.963 µM | 84.5% | > 10 µM | > 12.5 µM |  |  | > 12.5 µM |  |  |  |  | 
CC(c1ccco1)N(C(=O)CNc1ccc(C#N)cc1)C1CC1 (stereo not drawn) [DDD01062645] |  |  | >50.0 µM | 0.44 µM | > 20 µM |  |  |  | > 10 µM | > 12.5 µM |  | > 10 µM | > 12.5 µM |  | < 30% |  |  | 
Cc1ccc(CN(c2cc(C)nc3nc(C(F)(F)F)nn23)C2CC2)cc1 [DDD01063654] |  |  | >50.0 µM | > 10 µM | 0.33 µM |  | 0.324 µM | 73.2% | > 10 µM | > 12.5 µM |  |  | > 12.5 µM |  |  |  |  | 
Cc1cc(C)c(CNCC(O)c2ccc(F)c(F)c2)c(C)c1.Cl (stereo not drawn) [DDD01065539] |  |  |  | > 10 µM | 0.17 µM |  | 0.396 µM | 91.4% | > 10 µM | > 12.5 µM |  |  | > 12.5 µM |  |  | 36.6 µM |  | 
CC(NCC1CCN(CCO)CC1)c1ccc(OC(F)(F)F)cc1 (stereo not drawn) [DDD01073716] |  |  | >50.0 µM | > 10 µM | 10.8 µM |  |  |  | > 10 µM | > 12.5 µM |  | > 10 µM | 4.12 µM |  | < 30% |  |  | 
CN(Cc1cccc(F)c1)C(=O)CS(=O)(=O)Cc1c(Cl)cccc1Cl [DDD01077188] |  |  | >50.0 µM | > 10 µM | 0.63 µM |  | 0.764 µM | 74.2% | > 10 µM | > 12.5 µM |  |  | > 12.5 µM |  |  |  |  | 
CN1CCC(NCC(O)c2cccc(OCc3ccccc3)c2)CC1 (stereo not drawn) [DDD01079164] |  |  | 38.40 µM | > 10 µM | 7.53 µM |  |  |  | 6.29 µM | > 12.5 µM |  | > 10 µM | 3.12 µM |  | < 30% |  |  | 
CNc1cc(C)nc(NC2CCCN(C3Cc4ccccc4C3)C2)n1 (stereo not drawn) [DDD01243506] | 0.66 µM |  | >50.0 µM | > 10 µM |  |  | 1.07 µM | 97.1% | > 10 µM | > 12.5 µM |  |  | > 12.5 µM |  |  |  | ≥ 50 µM | 
OC1(CN2CCC(Oc3cccc(C(F)(F)F)c3)CC2)CCNC1 (stereo not drawn) [DDD01245291] |  |  | 21.70 µM | > 10 µM | 6.66 µM |  |  |  | > 10 µM | > 25 µM |  | 5.78 µM | 4.13 µM |  | < 30% |  |  | 
CC(c1cccs1)N(C)Cc1cnc(-c2ccccn2)nc1 (stereo not drawn) [DDD01246628] |  |  | 11.30 µM | > 10 µM | 4.75 µM |  |  |  | 2.31 µM | > 25 µM |  | 5.32 µM | > 25 µM |  | 41.9% |  |  | 
CC(C)CN1CCn2nc(CNc3ncnc4[nH]ccc34)cc2C1 [DDD01249504] |  |  | >50.0 µM | > 10 µM | > 20 µM |  |  |  | > 10 µM | > 25 µM |  | > 10 µM | > 25 µM |  | < 30% |  |  | 
CCCn1nccc1C(=O)N1CCN(C2CCc3ccccc3C2)CC1 (stereo not drawn) [DDD01251134] |  |  | >50.0 µM | > 10 µM | 1.01 µM |  | 0.969 µM | 58.4% | > 10 µM | > 12.5 µM |  |  | > 12.5 µM |  |  |  |  | 
Cc1nn(C)c(Oc2ccc(Cl)cc2)c1CN1CCC(CN)C1 (stereo not drawn) [DDD01254274] |  |  | >50.0 µM | > 10 µM | > 20 µM |  |  |  | 6.86 µM | > 25 µM |  | > 10 µM | > 25 µM |  | < 30% |  |  | 
CCc1ccc(C2c3nc[nH]c3CCN2Cc2nccn2CC)nc1 (stereo not drawn) [DDD01254473] |  |  | >50.0 µM | > 10 µM | > 20 µM |  |  |  | 0.53 µM | > 25 µM |  | 2.79 µM | 0.167 µM |  | 30.5% |  |  | submicromolar
